This note sets out measurements from ChEMBL document CHEMBL1152583 (Bioorg Med Chem, 2009).

Experiment [1] deals with Acetylcholinesterase (Torpedo californica) (UniProt P04058). Particulars: Tetronarce californica; 5 uM.
Description: Inhibition of Torpedo california AChE at 5 uM by Ellman's method
Experiment [2] concerns the target Acetylcholinesterase (Homo sapiens, UniProt P22303).
Description: Inhibition of human AChE by Ellman's method
In experiment [3] the target is Acetylcholinesterase (Torpedo californica) (UniProt P04058). Particulars: Tetronarce californica; 25 uM.
Description: Inhibition of Torpedo california AChE at 25 uM by Ellman's method
The target is the same in experiment [4]. The settings on record: Tetronarce californica; 0.625 uM.
Description: Inhibition of Torpedo california AChE at 0.625 uM by Ellman's method
The target of experiment [5] is Acetylcholinesterase (Torpedo californica, UniProt P04058).
Acetylcholinesterase (Torpedo californica, UniProt P04058), sequence (P04058 whole entry): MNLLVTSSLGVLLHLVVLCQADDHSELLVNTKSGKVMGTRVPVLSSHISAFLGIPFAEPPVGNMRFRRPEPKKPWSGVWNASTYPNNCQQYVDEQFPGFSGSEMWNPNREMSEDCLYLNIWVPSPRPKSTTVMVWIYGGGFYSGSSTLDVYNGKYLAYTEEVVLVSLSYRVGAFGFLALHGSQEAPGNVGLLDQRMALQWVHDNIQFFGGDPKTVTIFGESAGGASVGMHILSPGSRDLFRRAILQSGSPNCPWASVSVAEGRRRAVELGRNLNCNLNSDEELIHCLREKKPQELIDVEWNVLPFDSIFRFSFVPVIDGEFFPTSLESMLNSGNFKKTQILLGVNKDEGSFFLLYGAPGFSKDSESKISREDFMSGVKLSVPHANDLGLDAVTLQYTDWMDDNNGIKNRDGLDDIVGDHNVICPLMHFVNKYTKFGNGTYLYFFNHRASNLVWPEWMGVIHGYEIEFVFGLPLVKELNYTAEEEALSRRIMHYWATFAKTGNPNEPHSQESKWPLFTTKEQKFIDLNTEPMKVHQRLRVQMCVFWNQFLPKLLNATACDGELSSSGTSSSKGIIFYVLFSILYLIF
Description: Inhibition of Torpedo california AChE by Ellman's method
For experiment [6], the target named is Acetylcholinesterase (Torpedo californica) (UniProt P04058). Particulars: Tetronarce californica; 1.25 uM.
Description: Inhibition of Torpedo california AChE at 1.25 uM by Ellman's method
Experiment [7] shares this target. The settings on record: Tetronarce californica; 0.313 uM.
Description: Inhibition of Torpedo california AChE at 0.313 uM by Ellman's method
The target is the same in experiment [8]. Briefly: Inhibition of Torpedo california AChE at 31.3 pM by Ellman's method. Particulars: Tetronarce californica.
For experiment [9] the target is unchanged. Briefly: Inhibition of Torpedo california AChE at 0.125 nM by Ellman's method. The settings on record: Tetronarce californica. For orientation: In Ellman's method for cholinesterases, released thiocholine reacts with DTNB.
Experiment [10] has the same target. Briefly: Inhibition of Torpedo california AChE at 62.5 pM by Ellman's method. The settings on record: Tetronarce californica.
Experiment [11] shares this target. Briefly: Inhibition of Torpedo california AChE at 7.81 pM by Ellman's method. The settings on record: Tetronarce californica.
Experiment [12] has the same target. The experiment is described as follows: Ratio of IC50 for drug to P0407 for Torpedo california AChE by Ellman's method. Particulars: Tetronarce californica.
Experiment [13] shares this target. Briefly: Inhibition of Torpedo california AChE at 15.6 pM by Ellman's method. Particulars: Tetronarce californica.
The target is the same in experiment [14]. The experiment is described as follows: Inhibition of Torpedo california AChE at 2.5 nM by Ellman's method. Particulars: Tetronarce californica.
The target is the same in experiment [15]. Briefly: Inhibition of Torpedo california AChE at 0.625 nM by Ellman's method. The settings on record: Tetronarce californica.
Experiment [16] shares this target. Briefly: Inhibition of Torpedo california AChE at 5 nM by Ellman's method. The settings on record: Tetronarce californica.
For experiment [17] the target is unchanged. Briefly: Inhibition of Torpedo california AChE at 0.313 nM by Ellman's method. Particulars: Tetronarce californica.
The target is the same in experiment [18]. The experiment is described as follows: Inhibition of Torpedo california AChE at 1.25 nM by Ellman's method. The settings on record: Tetronarce californica.
The target is the same in experiment [19]. The experiment is described as follows: Inhibition of Torpedo california AChE at 0.25 nM by Ellman's method. Particulars: Tetronarce californica.
Experiment [20] shares this target. The experiment is described as follows: Inhibition of Torpedo california AChE at 0.5 nM by Ellman's method. The settings on record: Tetronarce californica.
Experiment [21] has the same target. Briefly: Inhibition of Torpedo california AChE at 7.56 nM by Ellman's method. Particulars: Tetronarce californica.
Experiment [22] has the same target. The experiment is described as follows: Inhibition of Torpedo california AChE at 30.3 nM by Ellman's method. Particulars: Tetronarce californica.
Experiment [23] shares this target. Briefly: Inhibition of Torpedo california AChE at 15.1 nM by Ellman's method. The settings on record: Tetronarce californica.
Experiment [24] has the same target. The settings on record: Tetronarce californica; 60.5 nM.
Description: Inhibition of Torpedo california AChE at 60.5 nM by Ellman's method

Acetylcholinesterase (Homo sapiens, UniProt P22303), sequence (P22303 whole entry): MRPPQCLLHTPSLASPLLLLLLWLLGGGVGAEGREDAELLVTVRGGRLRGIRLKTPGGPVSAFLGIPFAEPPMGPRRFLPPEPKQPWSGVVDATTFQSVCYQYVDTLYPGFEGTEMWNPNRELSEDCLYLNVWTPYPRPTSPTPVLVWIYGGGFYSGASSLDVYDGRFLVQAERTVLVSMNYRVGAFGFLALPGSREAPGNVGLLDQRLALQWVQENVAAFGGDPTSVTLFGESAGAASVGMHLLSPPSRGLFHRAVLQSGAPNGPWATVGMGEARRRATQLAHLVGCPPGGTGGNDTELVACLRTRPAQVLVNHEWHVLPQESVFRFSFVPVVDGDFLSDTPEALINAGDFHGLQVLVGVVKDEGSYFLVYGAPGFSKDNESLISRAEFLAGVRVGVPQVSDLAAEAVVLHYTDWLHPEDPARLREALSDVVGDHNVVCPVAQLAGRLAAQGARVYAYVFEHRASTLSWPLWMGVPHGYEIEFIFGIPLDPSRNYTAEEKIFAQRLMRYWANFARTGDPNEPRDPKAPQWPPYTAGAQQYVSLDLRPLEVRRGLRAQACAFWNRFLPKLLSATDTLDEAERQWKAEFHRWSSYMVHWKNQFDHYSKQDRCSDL
Acetylcholinesterase (Torpedo californica), sequence (P04058 22-564 limits assumed): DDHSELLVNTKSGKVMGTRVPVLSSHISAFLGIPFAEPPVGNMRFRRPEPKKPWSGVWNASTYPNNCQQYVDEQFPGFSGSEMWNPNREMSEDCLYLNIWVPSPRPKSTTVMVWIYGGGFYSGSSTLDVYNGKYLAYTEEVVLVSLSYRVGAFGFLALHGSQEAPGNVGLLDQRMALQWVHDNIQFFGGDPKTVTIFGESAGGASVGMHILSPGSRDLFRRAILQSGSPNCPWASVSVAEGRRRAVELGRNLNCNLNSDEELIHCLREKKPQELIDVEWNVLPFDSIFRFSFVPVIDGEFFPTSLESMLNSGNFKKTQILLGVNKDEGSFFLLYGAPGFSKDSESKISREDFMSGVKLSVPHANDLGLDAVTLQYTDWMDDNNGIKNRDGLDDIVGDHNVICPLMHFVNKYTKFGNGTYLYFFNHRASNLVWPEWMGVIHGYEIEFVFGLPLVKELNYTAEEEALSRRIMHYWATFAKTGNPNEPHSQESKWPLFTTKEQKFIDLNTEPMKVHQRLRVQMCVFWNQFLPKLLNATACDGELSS

`C/C=C1\[C@H]2C=C(C)C[C@]1(/N=C/C(=C/c1ccccc1)CCCCC)c1ccc(=O)[nH]c1C2`: the inhibition (usually the drop in the measured response relative to a control, in per cent) amounted to 86% in [1]; 79% in [3]; 44.2% in [4]; 58.6% in experiment [6]; 30.4% in experiment [7]. Also, the IC50 (as a rule, the point on the concentration scale where inhibition reaches its midpoint) worked out at 51 nM in experiment [2] and 796 nM in experiment [5].
Take `C/C=C1\[C@H]2C=C(C)C[C@]1(/N=C/c1ccc(C#N)cc1)c1ccc(=O)[nH]c1C2`: the IC50 in experiment [2] was found to be 22 nM; in experiment [5], 0.0412 nM. Further, the inhibition in experiment [8] worked out at 38.7%; in [9] it was 89.3%; in [10] it was 79.4%; in experiment [11], 12.6%; in experiment [13], 26%. The Ratio in [12] was 517.
In the case of `C/C=C1\[C@H]2C=C(C)C[C@]1(/N=C/c1ccc(OC)cc1OC)c1ccc(=O)[nH]c1C2`, the IC50 is 84 nM in experiment [2] and 0.0446 nM in experiment [5]. Also, the inhibition in experiment [8] was determined as 36.2%; in experiment [9], 76.5%; in experiment [10] it was 62.8%; in [11], 15.9%; in experiment [13], 22.1%. Further, the Ratio in experiment [12] is 477.
In the case of `C/C=C1\[C@H]2C=C(C)C[C@]1(/N=C/c1ccc(N(C)C)cc1)c1ccc(=O)[nH]c1C2`, the IC50 in experiment [2] stood at 31 nM; in experiment [5] it was 23.3 nM.
For `C/C=C1\[C@H]2C=C(C)C[C@]1(/N=C/C=C/c1ccccc1)c1ccc(=O)[nH]c1C2`, the values for the IC50 in [2] and in experiment [5] were 24 nM and 1.81 nM, respectively. Besides, the inhibition amounted to 62.5% in experiment [14]; 16.7% in experiment [15]; 83.4% in experiment [16]; 5.5% in experiment [17]; 37.1% in experiment [18].
With `C/C=C1\[C@H]2C=C(C)C[C@]1(/N=C/c1ccc(O)c(OCC)c1)c1ccc(=O)[nH]c1C2`, the figures for the IC50 in experiment [2] and in experiment [5] were 25 nM and 0.842 nM, respectively. Moreover, the inhibition in experiment [19] was determined as 68.1%; in experiment [15], 43.6%; in experiment [20] it was 84%; in experiment [17], 28.2%; in experiment [18] it was 56.2%.
In the case of `CNC(=O)Oc1ccc2c(c1)[C@]1(C)CCN(C)[C@@H]1N2C`, the inhibition in experiment [21] stood at 24.7%; in experiment [22], 64.3%; in experiment [23], 45.5%.
Take `C/C=C1\[C@H]2C=C(C)C[C@]1(/N=C/c1cc(OC)cc(OC)c1)c1ccc(=O)[nH]c1C2`: the IC50 in [2] came out at 29 nM; in experiment [5] it was 0.02 nM. For the same compound, the inhibition amounted to 61.7% in experiment [8]; 73.7% in experiment [24]; 90.8% in [9]; 80.6% in experiment [10]; 28.5% in [11]; 41.3% in experiment [13]. Besides, the Ratio in [12] came to 1060.
Turning to `C/C=C1\[C@H]2C=C(C)C[C@]1(/N=C/c1ccccc1OS(=O)(=O)O)c1ccc(=O)[nH]c1C2`, the IC50 in experiment [2] came to 41 nM; in [5], 18.2 nM.
With `C=CCOc1ccc(/C=N/[C@@]23CC(C)=C[C@@H](Cc4[nH]c(=O)ccc42)/C3=C\C)cc1`, the IC50 is 31 nM in [2] and 13.9 nM in experiment [5].
